Key:
HaCaT cells = assay: Cell viability (CCK-8) in human keratinocytes; type: cell-based
Method: (§1) In order to evaluate the efficacy of peptide treatment (RKLW and RQLW) to promote skin cell proliferation, human keratinocytes and dermal papilla (DP) cells were treated with RKLW and RQLW at 0.1, 1, and 10 μM. After being cultured for 24 and 48 hours, cells were treated with Cell Counting Kit-8 (CCK-8) to measure cell viability, and the results are shown in FIG. 3.

[1] = tested on: dermal papilla (DP) cells; assay: Cell viability (CCK-8) in dermal papilla cells; type: cell-based, human
Method: as §1

[2] = tested on: androgen receptor (AR) and its target proteins (DKK-1 and TGF-β); assay: Western blot of AR and its target proteins in HaCaT cells; type: cell-based, human; conditions: 0.1, 1, 10 μM, 24 hours
Method: (§2) The expression and phosphorylation of protein markers involved in alopecia-related signal transduction pathways were evaluated after treatment with peptides (RKLW and RQLW).
(§3) DHT-AR and Wnt/beta-catenin pathway: An androgen receptor (AR) is a protein that binds to dihydrotestosterone (DHT), a representative inducer of androgenetic alopecia, and when the AR is activated by binding to DHT, Dickkopf-1 (DKK-1) and transforming growth factor beta (TGF-β) are expressed and promote alopecia. In addition, DKK-1, which is expressed by the activation of the AR, suppresses the Wnt signaling pathway involved in the development and growth of hair follicles, and TGF-β induces alopecia by suppressing the growth of hair follicle cells.
(§4) Specifically, the expressions of proteins involved in major signaling pathways related to hair growth were analyzed when HaCaT and DP cells were treated with RKLW and RQLW at 0.1, 1, and 10 μM and cultured for 24 hours.
(§5) The protein immunoblot (Western blot) results of the expression of the AR and its target proteins (DKK-1 and TGF-β) in HaCaT and DP cells are shown in FIG. 5. […] When DP cells were treated with RKLW or RQLW, the expression levels of both the AR and its target protein TGF-β was reduced.

[3] = tested on: androgen receptor (AR) and its target proteins (DKK-1 and TGF-β); assay: Western blot of AR and its target proteins in DP cells; type: cell-based, human; conditions: 0.1, 1, 10 μM, 24 hours
Method: as §2, §3, §4, §5

[4] = tested on: Wnt signaling pathway proteins (p-GSK-3β and β-catenin); assay: Western blot of Wnt signaling pathway proteins in HaCaT cells; type: cell-based, human; conditions: 0.1, 1, 10 μM, 24 hours
Method: as §4
(§6) Furthermore, the protein immunoblot (Western blot) results showing differential expressions and phosphorylation of proteins involved in Wnt signaling pathway in HaCaT and DP cells are shown in FIG. 6. […] When DP cells were treated with RKLW or RQLW, the expression of p-GSK-3β was not increased, but the expression of β-catenin was increased, meaning that in DP cells, RKLW or RQLW accumulates β-catenin through a pathway other than GSK-3β to activate Wnt signaling.

[5] = tested on: Wnt signaling pathway proteins (p-GSK-3β and β-catenin); assay: Western blot of Wnt signaling pathway proteins in DP cells; type: cell-based, human; conditions: 0.1, 1, 10 μM, 24 hours
Method: as §4, §6

[6] = tested on: mitochondrial apoptosis signaling pathway proteins (Bax, Bcl-2, Caspase-3, and PARP); assay: Western blot of mitochondrial apoptosis signaling proteins in HaCaT cells; type: cell-based, human; conditions: 0.1, 1, 10 μM, 24 hours
Method: (§7) Mitochondrial apoptosis: Bax is a pro-apoptotic protein that promotes apoptosis, and Bcl-2 is a pro-survival protein that suppresses apoptosis; the balance between these two proteins is important in regulating apoptosis.
(§8) Specifically, the expressions of proteins involved in mitochondrial apoptotic signaling pathways were analyzed when HaCaT and DP cells were treated with RKLW and RQLW at 0.1, 1, and 10 μM and cultured for 24 hours, and the results are shown in FIG. 7.

[7] = tested on: mitochondrial apoptosis signaling pathway proteins (Bax, Bcl-2, Caspase-3, and PARP); assay: Western blot of mitochondrial apoptosis signaling proteins in DP cells; type: cell-based, human; conditions: 0.1, 1, 10 μM, 24 hours
Method: as §7, §8

[8] = tested on: cell cycle marker proteins (Cyclin D1, CDK4, Cyclin E1, and CDK2); assay: Western blot of cell cycle marker proteins in HaCaT cells; type: cell-based, human; conditions: 0.1, 1, 10 μM, 24 hours
Method: (§9) Cell cycle: maintaining the G1 phase of the cell cycle of scalp skin cells plays an important role in maintaining scalp health.
(§10) Specifically, the expressions of Cyclin D/CDK4 and Cyclin E/CDK2, which activate the G1 phase, were analyzed when HaCaT and DP cells were treated with RKLW and RQLW at 0.1, 1, and 10 µM and cultured for 24 hours, and the results are shown in FIG. 8.

[9] = tested on: cell cycle marker proteins (Cyclin D1, CDK4, Cyclin E1, and CDK2); assay: Western blot of cell cycle marker proteins in DP cells; type: cell-based, human; conditions: 0.1, 1, 10 μM, 24 hours
Method: as §9, §10

Row | Substance | cell viability of dermal papilla cells ([1]; 1 and 10 μM, 24 hours) | AR expression [2] | expression level of DKK-1 [2] | expression level of TGF-β [2] | expression level of AR [3] | expression level of TGF-β [3] | expression level of p-GSK-3β [4] | expression level of β-catenin [4] | expression of p-GSK-3β [5] | expression of β-catenin [5] | effect of suppressing apoptosis [6] | expression ratio of Bax/Bcl-2 [7] | expression level of Cyclin D/CDK4 [8] | expression level of Cyclin E/CDK2 [8] | expression level of Cyclin D/CDK4 [9] | expression level of Cyclin E/CDK2 [9] | other results
1 | RKLW (listed as Homo sapiens) | significantly increased cell viability | no significant change | decreased | decreased | reduced | reduced | increased | increased | not increased | increased | relatively insignificant effect | unable to regulate | increased | increased | increased | did not affect | cell viability of HaCaT cells (HaCaT cells; 24 and 48 hours, CCK-8): did not show statistical significance; treatment concentration at which cell viability was significantly increased ([1]; 48 hours): ≤ 10 µM
2 | RQLW (listed as Homo sapiens) | significantly increased cell viability | no significant change | decreased | decreased | reduced | reduced | increased | increased | not increased | increased | showed an effect of suppressing apoptosis | unable to regulate | increased | increased | increased | did not affect | concentration at which cell viability was significantly increased (HaCaT cells; after 24 hours): ≥ 100 µM; concentration at which cell viability was significantly increased (HaCaT cells; after 48 hours): ≥ 10 µM; cell viability of dermal papilla cells ([1]; 48 hours): no significant difference; expression ratio of Bax/Bcl-2 [6]: tended to decrease; protein level of PARP [6]: tended to decrease; protein level of cleaved caspase-3 [6]: tended to decrease
